Results taken from patent publication US12246010B2, “Formulations of tegavivint and related compounds” (Iterion Therapeutics, Inc., priority 2018, dated 2025).
“And” between values parts separate entries of the source, which are not always exact repeats. Equal values may be shown once. Read-outs that look alike come from different tables or passages of the source.

Tests used:
[1] = tested on: bleomycin-induced idiopathic pulmonary fibrosis (IPF); assay: Bleomycin-induced IPF mouse model: lung mechanics (FlexiVent compliance); assay type: in vivo, C57BL/6 male mice
Method: The purpose of this experiment was to investigate tegavivint nanosuspension in a mouse model of bleomycin-induced idiopathic pulmonary fibrosis (IPF). Test articles were as follows:
Murine model of pulmonary fibrosis was induced by intratracheally (IT) injected bleomycin (APP Pharmaceuticals, Schaumburg, IL). One dose of 0.025 U bleomycin dissolved in 50 microliters of Saline 0.9%, or PBS as control was administered to each animal on day 0.
Tegavivint nanosuspension was applied to Group 3 in the form of aerosols, through the method of whole body exposure. The mice were placed inside a plastic box. This box was sealed and connected by one of its sides to the outlet of the nebulizer device, and on the other side to a system of closed water. The whole procedure was carried out inside the fume hood of the animal room. In each treatment session, 5 ml of 25 mg/ml Tegavivint (125 mg) was nebulized over 15 min to each group of 4-5 mice in the chamber. To increase exposure of the mice to the aerosol, Tegavivint that precipitated in the aerosol chamber was collected with a syringe and re-nebulized a second and a third time. Mice were nebulized twice a day between day 5 and day 21 after administration of bleomycin. Group 1 and 2 received nebulized vehicle 5 ml in the same manner. […]

[2] = Lung concentration after nebulized whole body exposure of mice; assay type: in vivo, bcat-Ex3 mice; conditions: for concentration at 5 day: male, bcat-Ex3, mouse, lung, inhaled
Method: The purpose of this experiment was to test nebulized delivery of nanosuspensions.
Tegavivint particles suspended in Poloxamer 188/sorbitol at a concentration of 25 mg/mL were used.
These formulations were applied to the mice in the form of aerosols, through the method of whole body exposure. The mice were placed inside a plastic box. This box was sealed and connected by one of its sides to the outlet of the nebulizer device, and on the other side to a system of closed water. The whole procedure was carried out inside the fume hood of the animal room.
For the first experiment, the nebulizer kit of SATER LABS was used. This device uses the jet system. The device was primed with 5 ml of the drug, i.e. 125 mg of tegavivint (BC2059), for each group of 5 mice, and then the device was connected to the power source for nebulization. The energy was supplied by a DeVilbiss compressor model 646, which allows 5-7 pounds of pressure, and a flow of 6-8 liters per minute. For the second experiment, the device used was the Altera, ultrasonic nebulizer.
For the two experiments, 10 male bcat-Ex3 mice were used for each set. These mice were separated into 2 groups of 5 mice each. The first group received the drug daily, for 5 consecutive days. The second group received the drug only once (the fifth day). On day 5 all mice were sacrificed, lung harvested, and samples were stored at −30 degrees, in two labeled nylon bags, each containing the 5 samples from each group.

[3] = Dose-escalating intravenous infusion study in male Beagle dogs (plasma PK); assay type: in vivo; conditions: dog
Method: • Study Animals: Four male non-naïve Beagle dogs were released by Xenometrics for study use on Apr. 20, 2017. The animals were fed Harlan Teklad® Global 25% Protein Certified Dog Diet 2025C ad libitum throughout the study (except for brief periods during in-life procedures when it was • Dosing: Animals were dosed via intravenous (IV) infusion (via jugular vein) for 4 hours (h) [±5 minutes (min)].
[…] All blood samples were collected within 10 minutes of the target time and processed per protocol. Bioanalytical results indicated tegavivint was present in all plasma samples.
The pharmacokinetic parameters were determined for BC-2059 following the final 15 mg/kg infusion of the drug over 4 h.

[4] = mouse lung, Nebulizer (ultrasonic eRapid, Altera), 5 daily doses on Days 1-5
[5] = 15 mg/kg 4 h IV infusion, individual animals, 15 mg/kg

SMILES: C[C@@H]1C[C@H](C)CN(S(=O)(=O)c2ccc3c(c2)C(=NO)c2cc(S(=O)(=O)N4C[C@H](C)C[C@H](C)C4)ccc2C3=NO)C1 [BC2059, tegavivint]
- effect on lung compliance after bleomycin injury ([1]; Group 3, inhaled): reversed the compliance values to near those of the sham-treated controls
- Compliance ([1]; Group 3: IT bleomycin Day 0, 5 ml of 25 mg/ml tegavivint aerosol BID Day 5-21, Day 21, individual animals): 0.05515 ml/cm H2O and 0.05604 ml/cm H2O and 0.06762 ml/cm H2O and 0.0543 ml/cm H2O and 0.0561 ml/cm H2O
- concentration at 5 day ([2]; Nebulizer (ultrasonic eRapid, Altera), 5 daily doses on Days 1-5, read-out: Lung Concentration (ng/g)): 19100 ng/g
- concentration at 5 day ([2]; Nebulizer (ultrasonic eRapid, Altera), 5 daily doses on Days 1-5, read-out: Lung Concentration (ng/mL)): 4770 ng/mL
- lung tissue concentration in the previous testing (assayed concentration) ([2]; mouse lung, previous nebulization testing): ~0.02 mg/g
- Lung Concentration (ng/g) [2, 4]: 17200 ng/g and 18800 ng/g and 12200 ng/g and 22900 ng/g
- Lung Concentration (ng/mL) [2, 4]: 4290 ng/mL and 4690 ng/mL and 3040 ng/mL and 5730 ng/mL
- Plasma BC-2059, 4 h [3, 5]: 1310 ng/mL and 1320 ng/mL and 1150 ng/mL
- Plasma BC-2059, 12 h [3, 5]: 916.0 ng/mL and 1050 ng/mL and 777 ng/mL
- Plasma BC-2059, 24 h [3, 5]: 1120 ng/mL (2×) and 1070 ng/mL
- Plasma BC-2059, 36 h [3, 5]: 834 ng/mL and 931 ng/mL and 708 ng/mL
- Plasma BC-2059, 48 h [3, 5]: 663 ng/mL and 656 ng/mL and 647 ng/mL
- Plasma BC-2059, 72 h [3, 5]: 511 ng/mL and 480 ng/mL and 524 ng/mL
- Plasma BC-2059, 96 h [3, 5]: 360 ng/mL and 310 ng/mL and 364 ng/mL
- Plasma BC-2059, 120 h [3, 5]: 321 ng/mL and 262 ng/mL and 281 ng/mL
- Plasma BC-2059, Predose ([3]; prior to Dose 6 (15 mg/kg 4 h IV infusion), individual animals, 15 mg/kg): 257 ng/mL and 404 ng/mL and 309 ng/mL and 284 ng/mL
- concentration at 4 h ([3]; male, Beagle, plasma, iv, 15 mg/kg, 15 mg/kg 4 h IV infusion, individual animals, read-out: Plasma BC-2059, 4 h): 1600 ng/mL
- concentration at 12 h ([3]; male, Beagle, plasma, iv, 15 mg/kg, 15 mg/kg 4 h IV infusion, individual animals, read-out: Plasma BC-2059, 12 h): 784 ng/mL
- concentration at 24 h ([3]; male, Beagle, plasma, iv, 15 mg/kg, 15 mg/kg 4 h IV infusion, individual animals, read-out: Plasma BC-2059, 24 h): 723 ng/mL
- concentration at 36 h ([3]; male, Beagle, plasma, iv, 15 mg/kg, 15 mg/kg 4 h IV infusion, individual animals, read-out: Plasma BC-2059, 36 h): 674 ng/mL
- concentration at 48 h ([3]; male, Beagle, plasma, iv, 15 mg/kg, 15 mg/kg 4 h IV infusion, individual animals, read-out: Plasma BC-2059, 48 h): 664 ng/mL
- concentration at 72 h ([3]; male, Beagle, plasma, iv, 15 mg/kg, 15 mg/kg 4 h IV infusion, individual animals, read-out: Plasma BC-2059, 72 h): 393 ng/mL
- concentration at 96 h ([3]; male, Beagle, plasma, iv, 15 mg/kg, 15 mg/kg 4 h IV infusion, individual animals, read-out: Plasma BC-2059, 96 h): 277 ng/mL
- concentration at 120 h ([3]; male, Beagle, plasma, iv, 15 mg/kg, 15 mg/kg 4 h IV infusion, individual animals, read-out: Plasma BC-2059, 120 h): 228 ng/mL
- Cmax ([3]; male, Beagle, plasma, 15 mg/kg IV over 4 h, mean, n = 4 males): 1340 ± 187 ng/mL
- AUC(0-t) ([3]; male, Beagle, plasma, 15 mg/kg IV over 4 h, mean, n = 4 males, read-out: AUC0-120 h): 73500 ng·h/mL
- half-life ([3]; male, Beagle, plasma, 15 mg/kg IV over 4 h, mean, n = 4 males, read-out: T½ (converted)): 53 h
